molecular target: T1, His-EBNA1 (DNA binding domain of EBNA1, amino acids 459-607) (Epstein-Barr virus, UniProt P03211); experiment: Inhibition of 5′-biotin-oPL4624 binding to His-EBNA1 using Alpha Screen technology; details: Alpha Screen Activity (IC50, inhibition of 5′-biotin-oPL4624 binding to His-EBNA1), 15 nM His-EBNA1, 0.2 nM bt-oPL4624, 2 hr room temperature
T1 construct: made in house; host or cells: E. coli
Procedure: Inhibition of 5′-biotin-oPL4624 binding to His-EBNA1 using Alpha Screen technology: Assays were performed using the DNA binding domain of EBNA1 (amino acids 459-607), which was His-tagged (His-EBNA1) and the self-complementary biotinylated (bt) oligonucleotide with the sequence 5′-bt-[…]-ATGCTACCC-3′ (bt-oPL4624). The protein was expressed in E. coli and purified according to Barwell, et al. (Barwell J A, Bochkarev A, Pfuetzner R A, Tong H, Yang D S, Frappier L, Edwards A M. (1995) Overexpression, purification, and crystallization of the DNA binding and dimerization domains of the Epstein-Barr virus nuclear antigen 1. J Biol Chem. 270: 20556-9.). The bt-oPL4624 oligonucleotide was purchased from Integrated DNA Technologies, Inc (IDT). AlphaScreen donor, acceptor beads and white, opaque 384-well assay plates were purchased from PerkinElmer, Inc.
Assays contained 15 nM His-EBNA1, 0.2 nM bt-oPL4624, 5 μg/mL AlphaScreen streptavidin donor beads and nickel chelate acceptor beads, and a series of concentrations of test compound ranging from 3.2 nM to 100 μM in a total volume of 40 μL assay buffer (25 mM Tris, pH 7.2, 160 mM NaCl, 1 mM MgCl2). His-EBNA1 (30 nM) and bt-oPL4624 (0.4 nM) were preincubated with 10 μg/mL nickel chelate AlphaScreen acceptor bead, or 10 μg/mL streptavidin AlphaScreen donor bead, respectively, for 30 minutes at room temperature in assay buffer. Twenty microliters of His-EBNA1/acceptor bead mix and bt-oPL4624/donor bead mix were transferred to assay plates containing […] of 1:3 serial dilutions of test compounds previously prepared in DMSO at concentrations ranging from 0.32 μM to 10 mM. Nonspecific binding was determined with 5 μg/mL AlphaScreen acceptor bead in the absence of His-EBNA1. After 2 hr incubation at room temperature, the AlphaScreen signal was measured on the Envision plate reader (PerkinElmer, Inc.) at 680 nm excitation and 570 nm emission. Inhibition values at each concentration of test compound were determined by setting 100% equal to raw data values in the absence of EBNA1 and 0% equal to the raw data values in the presence of EBNA1. Nonlinear regression fits of the inhibition values to a one-site dose-response equation were performed using GraphPad Prism.

T1 sequence (P03211 459-607): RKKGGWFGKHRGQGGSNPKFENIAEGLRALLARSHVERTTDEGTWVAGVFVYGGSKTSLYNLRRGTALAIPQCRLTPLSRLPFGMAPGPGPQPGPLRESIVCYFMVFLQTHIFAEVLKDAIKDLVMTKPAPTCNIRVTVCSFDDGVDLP

Row | Structure (SMILES) | IC50 [nM]
1 | CNS(=O)(=O)c1cccc(C#Cc2cccc(C(=O)O)c2-n2cccc2)c1 [Entry 1, 3-(3-methylsulfamoyl-phenylethynyl)-2-pyrrol-1-yl-benzoic acid] | 1000 to 10000
2 | O=C(O)c1cccc(C#Cc2c[nH]c3ccccc23)c1-n1cccc1 [Entry 2, 3-(1H-indol-3-ylethynyl)-2-pyrrol-1-yl-benzoic acid] | < 1000
3 | CS(=O)(=O)Nc1cccc(C#Cc2cccc(C(=O)O)c2-n2cccc2)c1 [Entry 3, 3-[2-(3-methanesulfonamidophenyl)ethynyl]-2-(1H-pyrrol-1-yl)benzoic acid] | < 1000
4 | NS(=O)(=O)c1cccc(C#Cc2cccc(C(=O)O)c2-n2cccc2)c1 [Entry 4, 2-(1H-pyrrol-1-yl)-3-[2-(3-sulfamoylphenyl)ethynyl]benzoic acid] | < 1000
5 | NC(=O)c1cccc(C#Cc2cccc(C(=O)O)c2-n2cccc2)c1 [Entry 5, 3-[2-(3-carbamoylphenyl)ethynyl]-2-(1H-pyrrol-1-yl)benzoic acid] | < 1000
6 | O=C(O)c1cccc(C#Cc2ccc3nccn3c2)c1-n1cccc1 [Entry 6, 3-(2-{imidazo[1,2-a]pyridin-6-yl}ethynyl)-2-(1H-pyrrol-1-yl)benzoic acid] | 10000 to 100000
7 | O=C(O)c1cccc(C#Cc2ccnc(O)c2)c1-n1cccc1 [Entry 7, 3-[2-(2-hydroxypyridin-4-yl)ethynyl]-2-(1H-pyrrol-1-yl)benzoic acid] | 10000 to 100000
8 | O=C(O)c1cccc(C#Cc2ccc3cn[nH]c3c2)c1-n1cccc1 [Entry 8, 3-[2-(1H-indazol-6-yl)ethynyl]-2-(1H-pyrrol-1-yl)benzoic acid] | 1000 to 10000
9 | CC1(C)CN(c2cccc(C#Cc3cccc(C(=O)O)c3-n3cccc3)c2)C1=O [Entry 9, 3-{2-[3-(3,3-dimethyl-2-oxoazetidin-1-yl)phenyl]ethynyl}-2-(1H-pyrrol-1-yl)benzoic acid] | < 1000
10 | CC(C)(CNc1cccc(C#Cc2cccc(C(=O)O)c2-n2cccc2)c1)C(=O)O [Entry 10, 3-(2-{3-[(2-carboxy-2,2-dimethylethyl)amino]phenyl}ethynyl)-2-(1H-pyrrol-1-yl)benzoic acid] | 1000 to 10000
11 | O=C(O)c1cccc(C#Cc2cnc3cnccn23)c1-n1cccc1 [Entry 11, 3-(2-{imidazo[1,2-a]pyrazin-3-yl}ethynyl)-2-(1H-pyrrol-1-yl)benzoic acid] | < 1000
12 | O=C(O)c1cccc(C#Cc2cnc3ccccn23)c1-n1cccc1 [Entry 12, 3-(2-{imidazo[1,2-a]pyridin-3-yl}ethynyl)-2-(1H-pyrrol-1-yl)benzoic acid] | < 1000
13 | O=C(O)c1cccc(C#Cc2cccc3nccn23)c1-n1cccc1 [Entry 13, 3-(2-{imidazo[1,2-a]pyridin-5-yl}ethynyl)-2-(1H-pyrrol-1-yl)benzoic acid] | 10000 to 100000
14 | O=C(O)c1cccc(C#Cc2cnc3[nH]ccc3c2)c1-n1cccc1 [Entry 14, 2-(1H-pyrrol-1-yl)-3-(2-{1H-pyrrolo[2,3-b]pyridin-5-yl}ethynyl)benzoic acid] | 1000 to 10000
15 | Cn1ccc2c(C#Cc3cccc(C(=O)O)c3-n3cccc3)cccc21 [Entry 15, 3-[2-(1-methyl-1H-indol-4-yl)ethynyl]-2-(1H-pyrrol-1-yl)benzoic acid] | < 1000
16 | Cn1ccc2cc(C#Cc3cccc(C(=O)O)c3-n3cccc3)ccc21 [Entry 16, 3-[2-(1-methyl-1H-indol-5-yl)ethynyl]-2-(1H-pyrrol-1-yl)benzoic acid] | < 1000
17 | O=C(O)c1cccc(C#Cc2ccc3ccsc3c2)c1-n1cccc1 [Entry 17, 3-[2-(1-benzothiophen-6-yl)ethynyl]-2-(1H-pyrrol-1-yl)benzoic acid] | 1000 to 10000
18 | O=C(O)c1cccc(C#Cc2cccc3cc[nH]c23)c1-n1cccc1 [Entry 18, 3-[2-(1H-indol-7-yl)ethynyl]-2-(1H-pyrrol-1-yl)benzoic acid] | < 1000
19 | O=C(O)c1cccc(C#Cc2ccccc2CO)c1-n1cccc1 [Entry 19, 3-{2-[2-(hydroxymethyl)phenyl]ethynyl}-2-(1H-pyrrol-1-yl)benzoic acid] | < 1000
20 | O=C(O)c1cccc(C#Cc2ccc(CO)cc2)c1-n1cccc1 [Entry 20, 3-{2-[4-(hydroxymethyl)phenyl]ethynyl}-2-(1H-pyrrol-1-yl)benzoic acid] | < 1000

Row | Structure (SMILES) | IC50 [nM]
21 | Cc1ccc(C#Cc2cccc(C(=O)O)c2-n2c(C)ccc2C)cc1 [Entry 21, 2-(2,5-dimethyl-1H-pyrrol-1-yl)-3-[2-(4-methylphenyl)ethynyl]benzoic acid] | < 1000
22 | Cc1ccc(C)n1-c1c(C#Cc2cccc(O)c2)cccc1C(=O)O [Entry 22, 2-(2,5-dimethyl-1H-pyrrol-1-yl)-3-[2-(3-hydroxyphenyl)ethynyl]benzoic acid] | < 1000
23 | O=C(O)c1cccc(C#Cc2ccc3c(c2)NCC3)c1-n1cccc1 [Entry 23, 3-[2-(2,3-dihydro-1H-indol-6-yl)ethynyl]-2-(1H-pyrrol-1-yl)benzoic acid] | < 1000
24 | Cn1cc(C#Cc2cccc(C(=O)O)c2-n2cccc2)cn1 [Entry 24, 3-[2-(1-methyl-1H-pyrazol-4-yl)ethynyl]-2-(1H-pyrrol-1-yl)benzoic acid] | 1000 to 10000
25 | Cc1nc(C#Cc2cccc(C(=O)O)c2-n2cccc2)cn1C [Entry 25, 3-[2-(1,2-dimethyl-1H-imidazol-4-yl)ethynyl]-2-(1H-pyrrol-1-yl)benzoic acid] | 10000 to 100000
26 | Cn1cncc1C#Cc1cccc(C(=O)O)c1-n1cccc1 [Entry 26, 3-[2-(1-methyl-1H-imidazol-5-yl)ethynyl]-2-(1H-pyrrol-1-yl)benzoic acid] | 10000 to 100000
27 | Cn1ccnc1C#Cc1cccc(C(=O)O)c1-n1cccc1 [Entry 27, 3-[2-(1-methyl-1H-imidazol-2-yl)ethynyl]-2-(1H-pyrrol-1-yl)benzoic acid] | 10000 to 100000
28 | O=C(O)c1cccc(C#Cc2cncs2)c1-n1cccc1 [Entry 28, 2-(1H-pyrrol-1-yl)-3-[2-(1,3-thiazol-5-yl)ethynyl]benzoic acid] | 10000 to 100000
29 | O=C(O)c1cccc(C#Cc2cscn2)c1-n1cccc1 [Entry 29, 2-(1H-pyrrol-1-yl)-3-[2-(1,3-thiazol-4-yl)ethynyl]benzoic acid] | < 1000
30 | O=C(O)c1cccc(C#Cc2ccc3cc[nH]c3n2)c1-n1cccc1 [Entry 30, 2-(1H-pyrrol-1-yl)-3-(2-{1H-pyrrolo[2,3-b]pyridin-6-yl}ethynyl)benzoic acid] | 1000 to 10000
31 | CC(C)(O)c1cccc(C#Cc2cccc(C(=O)O)c2-n2cccc2)c1 [Entry 31, 3-{2-[3-(2-hydroxypropan-2-yl)phenyl]ethynyl}-2-(1H-pyrrol-1-yl)benzoic acid] | 1000 to 10000
32 | CC(C)C(O)C#Cc1cccc(C(=O)O)c1-n1cccc1 (stereo not shown) [Entry 32, 3-(3-hydroxy-4-methylpent-1-yn-1-yl)-2-(1H-pyrrol-1-yl)benzoic acid] | 1000 to 10000
33 | O=C(O)c1cccc(C#CC(O)c2ccccc2)c1-n1cccc1 (stereo not shown) [Entry 33, 3-(3-hydroxy-3-phenylprop-1-yn-1-yl)-2-(1H-pyrrol-1-yl)benzoic acid] | < 1000
34 | O=C(O)c1cccc(C#Cc2c[nH]c3ncccc23)c1-n1cccc1 [Entry 34, 2-(1H-pyrrol-1-yl)-3-(2-{1H-pyrrolo[2,3-b]pyridin-3-yl}ethynyl)benzoic acid] | < 1000
35 | O=C(O)c1cccc(C#Cc2cccc3[nH]ccc23)c1-n1cccc1 [Entry 35, 3-[2-(1H-indol-4-yl)ethynyl]-2-(1H-pyrrol-1-yl)benzoic acid] | < 1000
36 | O=C(O)c1cccc(C#Cc2ccn3ncnc3c2)c1-n1cccc1 [Entry 36, 2-(1H-pyrrol-1-yl)-3-(2-{[1,2,4]triazolo[1,5-a]pyridin-7-yl}ethynyl)benzoic acid] | < 1000
37 | CN(C)S(=O)(=O)c1cccc(C#Cc2cccc(C(=O)O)c2-n2cccc2)c1 [Entry 37, 3-{2-[3-(dimethylsulfamoyl)phenyl]ethynyl}-2-(1H-pyrrol-1-yl)benzoic acid] | < 1000
38 | O=C(O)c1cccc(C#Cc2cc(O)cc(F)c2)c1-n1cccc1 [Entry 38, 3-[2-(3-fluoro-5-hydroxyphenyl)ethynyl]-2-(1H-pyrrol-1-yl)benzoic acid] | < 1000
39 | O=C(O)c1cccc(C#Cc2cccc(CO)c2)c1-n1cccc1 [Entry 39, 3-{2-[3-(hydroxymethyl)phenyl]ethynyl}-2-(1H-pyrrol-1-yl)benzoic acid] | < 1000
40 | O=C(O)c1cccc(C#Cc2cncc(O)c2)c1-n1cccc1 [Entry 40, 3-[2-(5-hydroxypyridin-3-yl)ethynyl]-2-(1H-pyrrol-1-yl)benzoic acid] | 10000 to 100000

— patent publication US10421718B2, “EBNA1 inhibitors and their method of use” (priority 2013, dated 2019)
